Reference: patent publication US20250073255A1, “USE OF FA-TYPE LIPID COMPOUNDS IN PREPARATION OF NUCLEIC ACID DELIVERY REAGENT AND RELATED PRODUCT” (BEIJING BAISHIKANG PHARMACEUTICAL TECHNOLOGY (BSJPHARMA) …, priority 2021, published 2025)

System: C57BL/6 male mice
Experiment: In vivo delivery study of lipid nucleic acid mixture (oral gavage, RT-qPCR of PGY-sRNA-26 in tissues)
Parameters: species or system mouse
Conditions: for oral delivery of single-stranded sRNA nucleic acids into mouse blood / oral delivery of single-stranded sRNA nucleic acids into mouse brain tissue / oral delivery of single-stranded sRNA nucleic acids into mouse femur / oral delivery of single-stranded sRNA nucleic acids into mouse heart tissue / oral delivery of single-stranded sRNA nucleic acids into mouse intestinal tissue / oral delivery of single-stranded sRNA nucleic acids into mouse kidney tissue / oral delivery of single-stranded sRNA nucleic acids into mouse liver tissue / oral delivery of single-stranded sRNA nucleic acids into mouse lung tissue / oral delivery of single-stranded sRNA nucleic acids into mouse pancreatic tissue / oral delivery of single-stranded sRNA nucleic acids into mouse spleen tissue / oral delivery of single-stranded sRNA nucleic acids into mouse stomach tissue: 100 μg lipid:10 nmol PGY-sRNA-26, sampled after 12 hours; for oral delivery of single-stranded sRNA nucleic acids into mouse heart tissue: vs free uptake group; for oral delivery of single-stranded sRNA nucleic acids into mouse intestinal tissue: intestine; for oral delivery of single-stranded sRNA nucleic acids into mouse pancreatic tissue: pancreas; for overall delivery efficacy: delivering nucleic acids into each tissue and blood tested: 100 μg lipid:10 nmol PGY-sRNA-26, all tissues and blood tested
In short: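 Lipid (100 μg) and 10 nmol 3'-methylated single-stranded PGY-sRNA-26 were heated at 90 °C for 15 min, then given by oral gavage to mice fasted 12 h. Controls were saline and free sRNA. Blood and tissues were taken at 12 h, and levels were measured by stem-loop RT-qPCR relative to U6.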

| Compound | oral delivery of single-stranded sRNA nucleic acids into mouse blood | oral delivery of single-stranded sRNA nucleic acids into mouse brain tissue | oral delivery of single-stranded sRNA nucleic acids into mouse femur | oral delivery of single-stranded sRNA nucleic acids into mouse heart tissue | oral delivery of single-stranded sRNA nucleic acids into mouse intestinal tissue | oral delivery of single-stranded sRNA nucleic acids into mouse kidney tissue | oral delivery of single-stranded sRNA nucleic acids into mouse liver tissue | oral delivery of single-stranded sRNA nucleic acids into mouse lung tissue | oral delivery of single-stranded sRNA nucleic acids into mouse pancreatic tissue | oral delivery of single-stranded sRNA nucleic acids into mouse spleen tissue | oral delivery of single-stranded sRNA nucleic acids into mouse stomach tissue | overall delivery efficacy: delivering nucleic acids into each tissue and blood tested |
| --- | --- | --- | --- | --- | --- | --- | --- | --- | --- | --- | --- | --- |
| CCCCCC/C=C\CCCCCCCC(=O)OCCCCCCCCCCCCCCC [Lipid 821, pentadecyl (Z)-hexadec-9-enoate] | can effectively orally deliver | can effectively orally deliver | can effectively orally deliver | can effectively orally deliver | can effectively orally deliver | can effectively orally deliver | can effectively orally deliver | can effectively orally deliver | can effectively orally deliver | can effectively orally deliver | can effectively orally deliver | – |
| CCCCCCCCCCCC(C)O (stereo not shown) [Lipid 505, tridecan-2-ol] | can effectively orally deliver | can effectively orally deliver | – | – | – | – | can effectively orally deliver | – | – | – | can effectively orally deliver | – |
| CCCCCCCCCCCCCC(=O)OCCCCCCCCCCCCCCC(C)C [Lipid 829, 15-methylhexadecyl tetradecanoate] | can effectively orally deliver | can effectively orally deliver | can effectively orally deliver | can effectively orally deliver | can effectively orally deliver | can effectively orally deliver | can effectively orally deliver | can effectively orally deliver | can effectively orally deliver | can effectively orally deliver | can effectively orally deliver | – |
| CC/C=C\CCOC(=O)[C@H](O)C(C)C [Lipid 816, [(Z)-hex-3-enyl] (2R)-2-hydroxy-3-methylbutanoate] | can effectively orally deliver | can effectively orally deliver | can effectively orally deliver | can effectively orally deliver | can effectively orally deliver | can effectively orally deliver | can effectively orally deliver | can effectively orally deliver | can effectively orally deliver | can effectively orally deliver | can effectively orally deliver | – |
| N[C@H](CCCC(=O)O)C(=O)O [Lipid 625, (2R)-2-aminohexanedioic acid] | can effectively orally deliver | can effectively orally deliver | can effectively orally deliver | can effectively orally deliver | can effectively orally deliver | can effectively orally deliver | can effectively orally deliver | can effectively orally deliver | – | can effectively orally deliver | can effectively orally deliver | best delivery efficacy |
| O=C(O)CCCCCCCCCCCCCC(=O)O [Lipid 572, pentadecanedioic acid] | can effectively orally deliver | can effectively orally deliver | can effectively orally deliver | can effectively orally deliver | can effectively orally deliver | can effectively orally deliver | can effectively orally deliver | – | – | can effectively orally deliver | can effectively orally deliver | – |
| CCCCCCCCCOC(C)=O [Lipid 617, nonyl acetate] | can effectively orally deliver | can effectively orally deliver | can effectively orally deliver | – | can effectively orally deliver | can effectively orally deliver | can effectively orally deliver | can effectively orally deliver | – | can effectively orally deliver | can effectively orally deliver | – |
| NC(CCCC(=O)O)C(=O)O (stereo not shown) [Lipid 530, 2-aminohexanedioic acid] | can effectively orally deliver | can effectively orally deliver | can effectively orally deliver | can effectively orally deliver | can effectively orally deliver | can effectively orally deliver | can effectively orally deliver | can effectively orally deliver | – | can effectively orally deliver | can effectively orally deliver | best delivery efficacy |
| NCCCCCC(=O)NCCCCCC(=O)O [Lipid 522, 6-(6-aminohexanoylamino)hexanoic acid] | can effectively orally deliver | – | – | can effectively orally deliver | can effectively orally deliver | – | – | can effectively orally deliver | – | can effectively orally deliver | can effectively orally deliver | – |
| CCCCC/C=C\C/C=C\CCCCCCCCOC(=O)CCCCCCCCCCCCCCCCCCC [Lipid 812, [(9Z,12Z)-octadeca-9,12-dienyl] icosanoate] | can effectively orally deliver | can effectively orally deliver | can effectively orally deliver | can effectively orally deliver | can effectively orally deliver | can effectively orally deliver | can effectively orally deliver | can effectively orally deliver | can effectively orally deliver | can effectively orally deliver | can effectively orally deliver | – |
